Experimental data as given in PubChem BioAssay AID248 (DTP/NCI, 2004).
Several values for one entry are separate records, joined by “and”; a condition that tells them apart may be missing. Equal values may be shown once. Toxic doses and inconclusive results are not listed. Cut-off read from the data, not from the text of the source: active = T/C of 150% or more; inactive = T/C below 125%.

Test system: L1210 leukemia ip in BDF1 mice, survival T/C
Test: NCI In Vivo Anticancer Drug Screen. Data for tumor model L1210 Leukemia (intraperitoneal) in B6D2F1 (BDF1) mice
Settings: endpoint: mean survival time, higher = longer survival
Outline: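 In this screen, tumor-bearing mice given compound are compared to those given vehicle, and their survival values are reported as a treated-to-control quotient.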

[1] = dose: 75.0 mg/kg/injection, schedule: Q01DX001 (ip), vehicle: saline
[2] = dose: 150.0 mg/kg/injection, schedule: Q01DX001 (ip), vehicle: saline
[3] = dose: 300.0 mg/kg/injection, schedule: Q01DX001 (ip), vehicle: saline
[4] = dose: 100.0 mg/kg/injection, schedule: Q04DX003 (ip), vehicle: saline with Tween-80
[5] = dose: 200.0 mg/kg/injection, schedule: Q04DX003 (ip), vehicle: saline with Tween-80
[6] = dose: 400.0 mg/kg/injection, schedule: Q04DX003 (ip), vehicle: saline with Tween-80
[7] = dose: 100.0 mg/kg/injection, schedule: Q01DX001 (ip), vehicle: Klucel (hydroxypropylcellulose) (HPC)
[8] = dose: 200.0 mg/kg/injection, schedule: Q01DX001 (ip), vehicle: Klucel (hydroxypropylcellulose) (HPC)
[9] = dose: 400.0 mg/kg/injection, schedule: Q01DX001 (ip), vehicle: Klucel (hydroxypropylcellulose) (HPC)
[10] = dose: 100.0 mg/kg/injection, schedule: Q01DX009 (ip), vehicle: Klucel (hydroxypropylcellulose) (HPC)
[11] = dose: 100.0 mg/kg/injection, schedule: Q04DX003 (ip), vehicle: Klucel (hydroxypropylcellulose) (HPC)
[12] = dose: 200.0 mg/kg/injection, schedule: Q01DX009 (ip), vehicle: Klucel (hydroxypropylcellulose) (HPC)
[13] = dose: 200.0 mg/kg/injection, schedule: Q04DX003 (ip), vehicle: Klucel (hydroxypropylcellulose) (HPC)
[14] = dose: 400.0 mg/kg/injection, schedule: Q01DX009 (ip), vehicle: Klucel (hydroxypropylcellulose) (HPC)
[15] = dose: 400.0 mg/kg/injection, schedule: Q04DX003 (ip), vehicle: Klucel (hydroxypropylcellulose) (HPC)
[16] = dose: 100.0 mg/kg/injection, schedule: Q01DX009 (ip), vehicle: saline with Tween-80
[17] = dose: 200.0 mg/kg/injection, schedule: Q01DX009 (ip), vehicle: saline with Tween-80
[18] = dose: 400.0 mg/kg/injection, schedule: Q01DX009 (ip), vehicle: saline with Tween-80
[19] = dose: 100.0 mg/kg/injection, schedule: Q01DX001 (ip), vehicle: saline
[20] = dose: 200.0 mg/kg/injection, schedule: Q01DX001 (ip), vehicle: saline
[21] = dose: 400.0 mg/kg/injection, schedule: Q01DX001 (ip), vehicle: saline
[22] = dose: 100.0 mg/kg/injection, schedule: Q04DX002 (ip), vehicle: saline
[23] = dose: 200.0 mg/kg/injection, schedule: Q04DX002 (ip), vehicle: saline
[24] = dose: 400.0 mg/kg/injection, schedule: Q04DX002 (ip), vehicle: saline

Measured: T/C

CCOC(=O)N/N=C/c1ccccc1OC
inactive: [1] 90 % of control | [2] 90 % of control | [3] 96 % of control

O=C1Nc2cc(C(F)(F)F)ccc2/C1=C/c1ccc(Cl)cc1
inactive: [1] 92 % of control | dose: 75.0 mg/kg/injection, schedule: Q04DX003 (ip), vehicle: saline 96 % of control | [2] 97 % of control | dose: 150.0 mg/kg/injection, schedule: Q04DX003 (ip), vehicle: saline 100 % of control | [3] 97 % of control | dose: 300.0 mg/kg/injection, schedule: Q04DX003 (ip), vehicle: saline 94 % of control

C(CC1CCCCC1)=C(CCC1CCCCC1)CCC1CCCCC1
inactive: [4] 103 % of control | [5] 105 % of control | [6] 100 % of control

O=C(C(=Nc1ccccc1)C(=Nc1ccccc1)C(=O)c1ccccc1)c1ccccc1
inactive: [7] 97 % of control | [8] 98 % of control | [9] 95 % of control

Nc1ccc(/C=C/c2ccncc2)cc1
inactive: [10] 92 % of control | [11] 101 % of control | [12] 92 % of control | [13] 104 % of control | [14] 102 % of control | [15] 96 % of control

O=C(Nc1ccccc1)c1ccccc1C(O)(c1ccccc1)c1ccccn1 (stereo not given)
inactive: [16] 95 % of control | [17] 97 % of control | [18] 92 % of control

NC(=O)Cn1cnc2c(N)ncnc21
inactive: [4] 95 % of control | [5] 95 % of control | [6] 101 % of control

O=C1c2cc3c(cc2CCC1c1ccc2c(c1)OCO2)OCO3 (stereo not given)
inactive: dose: 40.0 mg/kg/injection, schedule: Q01DX009 (ip), vehicle: saline with Tween-80 88 % of control | dose: 80.0 mg/kg/injection, schedule: Q01DX009 (ip), vehicle: saline with Tween-80 88 % of control | dose: 120.0 mg/kg/injection, schedule: Q01DX009 (ip), vehicle: saline with Tween-80 94 % of control | dose: 240.0 mg/kg/injection, schedule: Q01DX009 (ip), vehicle: saline with Tween-80 94 % of control | dose: 240.0 mg/kg/injection, schedule: Q01DX009 (ip), vehicle: saline 93 % of control | dose: 360.0 mg/kg/injection, schedule: Q01DX009 (ip), vehicle: saline with Tween-80 96 % of control | dose: 360.0 mg/kg/injection, schedule: Q01DX009 (ip), vehicle: saline 96 % of control | dose: 545.0 mg/kg/injection, schedule: Q01DX009 (ip), vehicle: saline 91 % of control

Cc1cccc(NC(=O)CCCCCCCCC(=O)Nc2cccc(C)c2C)c1C
inactive: [10] 92 % of control | [12] 102 % of control | [14] 98 % of control

CC(=O)c1ccc(O)cc1
inactive: dose: 100.0 mg/kg/injection, schedule: Q04DX002 (ip), vehicle: Klucel (hydroxypropylcellulose) (HPC) 114 % of control | dose: 200.0 mg/kg/injection, schedule: Q04DX002 (ip), vehicle: Klucel (hydroxypropylcellulose) (HPC) 96 % of control | dose: 400.0 mg/kg/injection, schedule: Q04DX002 (ip), vehicle: Klucel (hydroxypropylcellulose) (HPC) 96 % of control

O=C(Nc1ccc(S(=O)(=O)NC2CCCCC2)cc1)OC1CCCCC1
inactive: [19] 92 % of control | [20] 90 % of control | [21] 94 % of control

[Cu+2].[NH-]C(CC(N)=O)C(=O)O.[NH-]C(CC(N)=O)C(=O)O (stereo not given)
inactive: dose: 12.5 mg/kg/injection, schedule: Q01DX009 (ip), vehicle: saline 107 % of control | dose: 12.5 mg/kg/injection, schedule: Q04DX003 (ip), vehicle: saline 92 % of control | dose: 25.0 mg/kg/injection, schedule: Q01DX009 (ip), vehicle: saline 98 % of control | dose: 25.0 mg/kg/injection, schedule: Q04DX003 (ip), vehicle: saline 94 % of control | dose: 50.0 mg/kg/injection, schedule: Q04DX003 (ip), vehicle: saline 87 % of control

CC1CCCN(C(=O)Nc2ccccc2)C1 (stereo not given)
inactive: [22] 104 % of control | [23] 115 % of control | [24] 96 % of control

Cc1[nH]c2ccccc2c(=O)c1-c1ccccc1
inactive: dose: 50.0 mg/kg/injection, schedule: Q01DX001 (ip), vehicle: saline 98 % of control | [19] 98 % of control | [20] 102 % of control | [21] 96 % of control

O=C(COc1cc(Cl)c(Cl)cc1Cl)Nc1ccc(-c2ccccc2)cc1
inactive: dose: 75.0 mg/kg/injection, schedule: Q04DX002 (ip), vehicle: Klucel (hydroxypropylcellulose) (HPC) 95 % of control | dose: 150.0 mg/kg/injection, schedule: Q04DX002 (ip), vehicle: Klucel (hydroxypropylcellulose) (HPC) 103 % of control | dose: 300.0 mg/kg/injection, schedule: Q04DX002 (ip), vehicle: Klucel (hydroxypropylcellulose) (HPC) 98 % of control

O=C(/C(=C\c1ccccc1)CBr)c1ccc(Cl)cc1
inactive: [4] 119 % of control

Oc1ccc2ccccc2c1N=Nc1nccs1
inactive: dose: 12.5 mg/kg/injection, schedule: Q01DX009 (ip), vehicle: Klucel (hydroxypropylcellulose) (HPC) 96 % of control | dose: 25.0 mg/kg/injection, schedule: Q01DX009 (ip), vehicle: Klucel (hydroxypropylcellulose) (HPC) 95 % of control | dose: 50.0 mg/kg/injection, schedule: Q01DX009 (ip), vehicle: Klucel (hydroxypropylcellulose) (HPC) 101 % of control | [7] 94 % of control | [11] 100 % of control | [8] 101 % of control | [13] 96 % of control | [9] 98 % of control | [15] 94 % of control

OC1C2CC3C1C3C2c1ccccc1 (stereo not given)
inactive: [10] 102 % of control | [12] 91 % of control

CSc1ccc(NC(=O)OCCOc2ccccc2)cc1
inactive: dose: 100.0 mg/kg/injection, schedule: Q01DX001 (ip), vehicle: saline with Tween-80 94 % of control | [16] 96 % of control and 89 % of control | dose: 100.0 mg/kg/injection, schedule: Q04DX002 (ip), vehicle: saline with Tween-80 99 % of control | [4] 100 % of control | dose: 200.0 mg/kg/injection, schedule: Q01DX001 (ip), vehicle: saline with Tween-80 94 % of control | [17] 97 % of control and 89 % of control | dose: 200.0 mg/kg/injection, schedule: Q04DX002 (ip), vehicle: saline with Tween-80 108 % of control | [5] 102 % of control | dose: 400.0 mg/kg/injection, schedule: Q01DX001 (ip), vehicle: saline with Tween-80 110 % of control | [18] 94 % of control and 107 % of control | dose: 400.0 mg/kg/injection, schedule: Q04DX002 (ip), vehicle: saline with Tween-80 89 % of control | [6] 102 % of control

Cn1c2ccc(Cl)cc2c2nnc(NCCCO)nc21
inactive: [22] 97 % of control | [23] 89 % of control | [24] 93 % of control

C1=C2CCCCC2OC1 (stereo not given)
inactive: dose: 75.0 mg/kg/injection, schedule: Q01DX001 (ip), vehicle: carboxymethylcellulose (CMC) 97 % of control | dose: 150.0 mg/kg/injection, schedule: Q01DX001 (ip), vehicle: carboxymethylcellulose (CMC) 98 % of control

CS(=O)(=O)NC1=NCCN1[N+](=O)[O-]
inactive: dose: 10.0 mg/kg/injection, schedule: Q01DX009 (ip), vehicle: Klucel (hydroxypropylcellulose) (HPC) 88 % of control | dose: 20.0 mg/kg/injection, schedule: Q01DX009 (ip), vehicle: Klucel (hydroxypropylcellulose) (HPC) 91 % of control | dose: 20.0 mg/kg/injection, schedule: Q04DX003 (ip), vehicle: Klucel (hydroxypropylcellulose) (HPC) 98 % of control | dose: 40.0 mg/kg/injection, schedule: Q01DX009 (ip), vehicle: Klucel (hydroxypropylcellulose) (HPC) 98 % of control | dose: 40.0 mg/kg/injection, schedule: Q04DX003 (ip), vehicle: Klucel (hydroxypropylcellulose) (HPC) 101 % of control

O=C(O)c1cccc(Br)c1.[Ni]
inactive: dose: 25.0 mg/kg/injection, schedule: Q04DX002 (ip), vehicle: Klucel (hydroxypropylcellulose) (HPC) 100 % of control | dose: 50.0 mg/kg/injection, schedule: Q04DX002 (ip), vehicle: Klucel (hydroxypropylcellulose) (HPC) 106 % of control
